# ChEMBL document CHEMBL3507680, “University of Dundee, Gates Library screen for HepG2 cell viability”
# Assay: Human HepG2 cell viability assay in 384 well format
# Type: toxicity, cell-based
# Parameters: dose 125 nL, time 70.5 hour; concentration not given beside the values
# Conditions: HepG2 cells, read-out: Inhibition
row,Structure (SMILES),cytotoxicity at 70.5 h
1,Cc1cc(NCCC(=O)NC2CCCCC2)nc(-c2ccncc2)n1,24.9%
2,CN1CCOC(CNC(=O)C2(c3cccc(Cl)c3)CC2)C1 (centres undefined),-5.99%
3,Cc1cccc(C2(C(=O)NCC3CN(C)CCO3)CC2)c1 (centres undefined),2.72%
4,Cc1cc(NCCC(=O)NC(C)C)nc(-c2ccncc2)n1,3.03%
5,CN1CCOC(CNC(=O)C2(c3ccccc3)CCC2)C1 (centres undefined),-5.1%
6,N#Cc1cccc(OCc2ccoc2C(=O)N2CCCCC2)c1,3.19%
7,Cc1cc(C)cc(C(=O)NCCS(=O)(=O)N2CCSCC2)c1,20.5%
8,COc1ccccc1OCC(=O)Nc1ncccc1C,-3.19%
9,COCCN(Cc1ccc(F)cc1Cl)C(=O)c1cc(C)no1,-1.27%
10,Cc1ccn(-c2ccccc2NCc2cccnc2)n1,5.47%
11,Cc1ccc(S(C)(=O)=O)cc1C(=O)N(C)Cc1ccco1,-3.41%
12,CCc1nc(C)c(C(=O)N2CCCC(c3noc(C)n3)C2)s1 (centres undefined),-6.51%
13,CC(=O)N1CCN(C(=O)C(C)OCC(F)(F)F)CC1 (centres undefined),33.2%
14,Cc1cccc(C)c1NC(=O)CN(C)C(C)c1nc(C(C)(C)C)no1 (centres undefined),-88.9%
15,CCc1noc(C(C)N(C)CC(=O)Nc2ccc(Br)cc2C)n1 (centres undefined),-96.5%
16,CC1(NC(=O)Cc2cccs2)CCS(=O)(=O)C1 (centres undefined),-85.8%
17,Nc1cc(CCCNC(=O)NC2CCCC2)nn1-c1ccccc1,-102%
18,CC(NC(=O)C1=NN(C)C(=O)CC1)c1ccc(Cl)cc1 (centres undefined),-110%
19,CC(NC(=O)C1=NN(C)C(=O)CC1)c1cccc(Cl)c1 (centres undefined),-85.8%
20,CCSc1cc(C(=O)NCCC(=O)N(C)C)ccn1,-103%

row,Structure (SMILES),cytotoxicity at 70.5 h
1,Cc1ccc(C(=O)NCC(C)CN2CCCC2=O)c(=O)[nH]1 (centres undefined),-113%
2,CCCc1cc(NC2CCc3nc(C)nn3C2)n2ncnc2n1 (centres undefined),-112%
3,Cc1cnn(CC2CCCN2Cc2coc(-c3ccc(F)cc3)n2)c1 (centres undefined),-115%
4,Cc1cc(NC2CCc3nc(C)nn3C2)n2ncnc2n1 (centres undefined),-98.6%
5,O=C(NS(=O)(=O)c1ccccc1C(F)(F)F)c1cccc2c1OCCO2,-75.1%
6,Cc1ccc(C)c(S(=O)(=O)NC(=O)c2cccc3c2OCCO3)c1,-104%
7,COCCC(C)NC(=O)N1CCC(n2ccc(C(F)(F)F)n2)CC1 (centres undefined),-98.6%
8,C[C@H]1CN(C(=O)c2cccc(F)c2Cl)CCN1S(C)(=O)=O,-95.8%
9,O=C(NCc1ccon1)N1CCC(n2ccc(C(F)(F)F)n2)CC1,-94.1%
10,CCc1noc(C(C)N(C)CC(=O)Nc2cccc(C)c2C)n1 (centres undefined),20.2%
11,CCSc1cc(C(=O)NCC(C)(C)N(C)C)ccn1,-90.6%
12,CC(OCC(F)(F)F)C(=O)N1CCOCC1 (centres undefined),-99.6%
13,CCc1ncc2c(n1)CN(Cc1cnc(C)cn1)CC2,-72.8%
14,CCc1noc(C(C)N(C)CC(=O)Nc2ccccc2Cl)n1 (centres undefined),-89.8%
15,CCc1noc(C(C)N(C)CC(=O)Nc2ccc(Cl)c(C(F)(F)F)c2)n1 (centres undefined),-97%
16,c1csc(-c2nc(CN3CCCCC3Cn3cccn3)co2)c1 (centres undefined),-58%
17,Cc1nc(CN2CCc3cnc(C(C)C)nc3C2)oc1C,-77.4%
18,CC(C)C(C(=O)N1CCCN(Cc2cscn2)CC1)n1cncn1 (centres undefined),-4.6%
19,O=C(c1cc(Cl)c2c(c1)OCO2)N1CCN(c2cnccn2)CC1,0.695%
20,Cc1ccc(C(=O)NC2CCN(Cc3nc(C(C)C)no3)CC2)s1,-5.38%

row,Structure (SMILES),cytotoxicity at 70.5 h
1,Cc1c(CC(=O)N2CCSCC2)nnn1-c1cccc(Cl)c1,23.4%
2,O=C(c1cccc(NCCOc2ccc(F)cc2)c1)N1CCOCC1,4.98%
3,CC(C)C(C(=O)N1CCN(Cc2cscn2)CC1)n1cncn1 (centres undefined),-1.99%
4,CC(C)(NC(=O)CCc1ccco1)c1ccc2c(c1)OCCO2,-2.91%
5,Cc1nc(CN2CCN(C(=O)C(C(C)C)n3cncn3)CC2)cs1 (centres undefined),-1.55%
6,Cc1cc(CN2CCN(C(=O)C(C(C)C)n3cncn3)CC2)no1 (centres undefined),-8.12%
7,Cc1ccc(-n2nnc(CC(=O)N3CCN(C4CC4)CC3)c2C)cc1,-8.64%
8,Cc1oc(-c2ccsc2)nc1CC(=O)NCC(C)(C)CN(C)C,-9.09%
9,COc1ccc(-c2nc(CN3CC(n4cccn4)C3)no2)cc1,-5.24%
10,Cc1cc(C)n(C2CN(Cc3noc(C4CC4)n3)C2)n1,20.6%
11,COCC(NC(=O)c1cc(C)n(C)n1)c1cccc(C(F)(F)F)c1 (centres undefined),4.67%
12,Cc1ccc(-c2nc(CN3CC(n4nc(C)cc4C)C3)no2)cc1,-8.79%
13,CCn1nc2c(cc1=O)CN(Cc1nc3ccccc3o1)CC2,-9.68%
14,CCCn1nc2c(cc1=O)CN(Cc1nc(C)c3ccccc3n1)CC2,-7.04%
15,Cn1nc2c(cc1=O)CN(Cc1nc3ccccc3c(=O)[nH]1)CC2,-6.45%
16,Cc1ccc(OC2CCN(S(=O)(=O)N(C)C)CC2)nc1,-12.1%
17,CCc1noc(CN(Cc2cccs2)C2CC2)n1,0.387%
18,NC(C(=O)N1CCSc2ccccc2C1)c1ccccc1 (centres undefined),2.56%
19,CC(C)(C)c1cc(=O)[nH]c(C2(N)CCCCC2)n1,-4.98%
